# Columns and labels:
# [1] = test system: LLC-PK1 monolayer model; assay: Inhibition study of [14C]fluciclovine apical-to-basal transport, LLC-PK1 monolayer model; settings: 1 mM inhibitor, 10 µM [14C]fluciclovine
# Description: Natural and synthetic amino acids were used as inhibitors: MeAIB (2-(methylamino)-isobutyric acid, for system A in the presence of Na^+); Thr (L-threonine, for system ASC in the presence of Na^+); and BCH (2-aminobicyclo[2,2,1]heptane-2-carboxylic acid, for system L in the absence of Na^+).
# [2] = test system: LLC-PK1 monolayers; assay: Apical-to-basal transport through LLC-PK1 monolayers; assay type: in vitro ADME, pig
# Description: The LLC-PK1 cell line was purchased from DS Pharma Biomedical (Osaka, Japan). Cells were maintained in Dulbecco’s modified Eagle’s medium (DMEM; Life Technologies Japan, Tokyo, Japan) supplemented with 10% (v/v) fetal bovine serum (American Type Culture Collection, Manassas, VA, USA) and antibiotics (100 U/mL penicillin and 100 μg/mL streptomycin (Life Technologies Japan)). Cells were cultured at 37 °C under an atmosphere containing 5% CO2 before the start of the experiments.
# Cells were seeded at a density of 1.5 × 10^6 cells/0.25 mL on the membrane of cell culture inserts fitting 24-well plates (upper compartment, apical side; Becton Dickinson, Franklin Lakes, NJ, USA). Flat-bottom 24-well tissue culture plates (Becton Dickinson) containing 0.95 mL of culture medium per well were used as the basolateral side (bottom compartment).
# LLC-PK1 monolayer formation was monitored by the measurement of TER using an EVOM-2 and Endohm24 (World Precision Instruments, Inc., Sarasota, FL, USA) according to the manufacturer’s protocol. […] [^3H]Mannitol transport was measured as described in Section 4.3 for the validation of tight junction formation because mannitol passes through the cell monolayers via the paracellular route.
# Experimental procedures were performed as described previously with minor modifications. After cultivation as described above, the culture media in both compartments were replaced with Na^+ buffer (137 mM NaCl, 2.7 mM KCl, 8 mM Na2HPO4, 1.5 mM KH2PO4, 5.6 mM D-glucose, 0.9 mM CaCl2, and 0.5 mM MgCl2; pH 7.4 at 37 °C), and the cells were preincubated for 10 min at 37 °C under normal air conditions. After the buffer was removed from each compartment, the permeability experiments were started with the addition of 0.25 mL of Na^+ buffer containing radiolabeled tracers (final concentration: 81 nM for [^3H]mannitol and 10 μM for the ^14C-labeled amino acid tracers) in each upper compartment, and 0.95 mL of Na^+ buffer in each bottom compartment. The inserts were placed into new 24-well culture plates containing 0.95 mL/well of Na^+ buffer after 5, 15, 30, 60, and 90 min of incubation. Subsequently, the cells were incubated up to 120 min at 37 °C under normal air conditions.
# The apical-to-basal permeability was measured by sampling an aliquot of the buffer from the upper and bottom compartment at the indicated times. To evaluate intracellular accumulation, the cells were lysed in 0.5 mL of 0.1N NaOH at room temperature following rapid washing of the cells with ice-cold Na^+ buffer. The radioactivity of each aliquot was measured with an LSC6000SC (Beckman Coulter, Inc., Brea, CA, USA) or Tri-Carb 2910TR liquid scintillation counter (PerkinElmer) using Ultima Gold (PerkinElmer).
# [3] = test system: sodium-coupled neutral amino acid transporter 2 (SNAT2); set-up: method as in PMID 23647854; settings: cited from earlier work
# [4] = test system: L-type amino acid transporter 1 (LAT1); set-up: method as in PMID 23647854; settings: cited from earlier work
# [5] = test system: alanine-serine-cysteine transporter 2 (ASCT2); set-up: method as in PMID 23647854; settings: cited from earlier work
# [6] = test system: [18F]fluciclovine uptake; set-up: method as in PMID 21536930; settings: cited from earlier work
# [7] = substrate: N[C@]1(C(=O)O)C[C@@H](F)C1; assay: cells, lysate or membranes named; settings: not significant vs control vesicles, pH 7.0
molecule,measurement,setting,value
"C[C@@H](O)[C@H](N)C(=O)O [Thr, L-threonine]",inhibition of [14C]fluciclovine apical-to-basal transport,[1]; Na+ buffer,significant inhibition
"CNC(C)(C)C(=O)O [MeAIB, 2-(methylamino)-isobutyric acid]",inhibition of [14C]fluciclovine apical-to-basal transport,[1]; Na+ buffer,no significant inhibition
"OC[C@@H](O)[C@@H](O)[C@H](O)[C@H](O)CO [[^3H]mannitol, D-[1-^3H(N)]mannitol]",mean percentage of [3H]mannitol permeation,[2]; day 1 after seeding,19.3%
same,mean percentage of [3H]mannitol permeation,[2]; day 4 after seeding,1.23%
same,mean percentage of [3H]mannitol permeation,[2]; day 7 after seeding,2.29%
"N[C@]1(C(=O)O)C[C@@H](F)C1 [[^18F]fluciclovine, trans-1-amino-3-[^18F]fluorocyclobutanecarboxylic acid]",Km,[3],222 µM
same,Km,[4],230 µM
same,Km,[5],92 µM
Nc1ccc(C(=O)NCC(=O)O)cc1 [p-aminohippurate],inhibition of [18F]fluciclovine uptake,[6],approximately 5%
"NC1(C(=O)O)CC2CCC1C2 (stereo not drawn) [BCH, 2-aminobicyclo[2,2,1]heptane-2-carboxylic acid]",inhibition of [14C]fluciclovine apical-to-basal transport,[1]; Na+-free buffer,no significant inhibition
human MRP4 (Homo sapiens) (protein) MLPVYQEVKPNPLQDANLCSRVFFWWLNPLFKIGHKRRLEEDDMYSVLPEDRSQHLGEELQGFWDKEVLRAENDAQKPSLTRAIIKCYWKSYLVLGIFTLIEESAKVIQPIFLGKIINYFENYDPMDSVALNTAYAYATVLTFCTLILAILHHLYFYHVQCAGMRLRVAMCHMIYRKALRLSNMAMGKTTTGQIVNLLSNDVNKFDQVTVFLHFLWAGPLQAIAVTALLWMEIGISCLAGMAVLIILLPLQSCFGKLFSSLRSKTATFTDARIRTMNEVITGIRIIKMYAWEKSFSNLITNLRKKEISKILRSSCLRGMNLASFFSASKIIVFVTFTTYVLLGSVITASRVFVAVTLYGAVRLTVTLFFPSAIERVSEAIVSIRRIQTFLLLDEISQRNRQLPSDGKKMVHVQDFTAFWDKASETPTLQGLSFTVRPGELLAVVGPVGAGKSSLLSAVLGELAPSHGLVSVHGRIAYVSQQPWVFSGTLRSNILFGKKYEKERYEKVIKACALKKDLQLLEDGDLTVIGDRGTTLSGGQKARVNLARAVYQDADIYLLDDPLSAVDAEVSRHLFELCICQILHEKITILVTHQLQYLKAASQILILKDGKMVQKGTYTEFLKSGIDFGSLLKKDNEESEQPPVPGTPTLRNRTFSESSVWSQQSSRPSLKDGALESQDTENVPVTLSEENRSEGKVGFQAYKNYFRAGAHWIVFIFLILLNTAAQVAYVLQDWWLSYWANKQSMLNVTVNGGGNVTEKLDLNWYLGIYSGLTVATVLFGIARSLLVFYVLVNSSQTLHNKMFESILKAPVLFFDRNPIGRILNRFSKDIGHLDDLLPLTFLDFIQTLLQVVGVVSVAVAVIPWIAIPLVPLGIIFIFLRRYFLETSRDVKRLESTTRSPVFSHLSSSLQGLWTIRAYKAEERCQELFDAHQDLHSEAWFLFLTTSRWFAVRLDAICAMFVIIVAFGSLILAKTLDAGQVGLALSYALTLMGMFQWCVRQSAEVENMMISVERVIEYTDLEKEAPWEYQKRPPPAWPHEGVIIFDNVNFMYSPGGPLVLKHLTALIKSQEKVGIVGRTGAGKSSLISALFRLSEPEGKIWIDKILTTEIGLHDLRKKMSIIPQEPVLFTGTMRKNLDPFNEHTDEELWNALQEVQLKETIEDLPGKMDTELAESGSNFSVGQRQLVCLARAILRKNQILIIDEATANVDPRTDELIQKKIREKFAHCTVLTIAHRLNTIIDSDKIMVLDSGRLKEYDEPYVLLQNKESLFYKMVQQLGKAEAAALTETAKQVYFKRNYPHIGHTDHMVTNTSNGQPSTLTIFETAL,Km,[7]; other: MRP4 vesicles,15300 ± 44100 µM
human BCRP (Homo sapiens) (protein) MSSSNVEVFIPVSQGNTNGFPATASNDLKAFTEGAVLSFHNICYRVKLKSGFLPCRKPVEKEILSNINGIMKPGLNAILGPTGGGKSSLLDVLAARKDPSGLSGDVLINGAPRPANFKCNSGYVVQDDVVMGTLTVRENLQFSAALRLATTMTNHEKNERINRVIQELGLDKVADSKVGTQFIRGVSGGERKRTSIGMELITDPSILFLDEPTTGLDSSTANAVLLLLKRMSKQGRTIIFSIHQPRYSIFKLFDSLTLLASGRLMFHGPAQEALGYFESAGYHCEAYNNPADFFLDIINGDSTAVALNREEDFKATEIIEPSKQDKPLIEKLAEIYVNSSFYKETKAELHQLSGGEKKKKITVFKEISYTTSFCHQLRWVSKRSFKNLLGNPQASIAQIIVTVVLGLVIGAIYFGLKNDSTGIQNRAGVLFFLTTNQCFSSVSAVELFVVEKKLFIHEYISGYYRVSSYFLGKLLSDLLPMRMLPSIIFTCIVYFMLGLKPKADAFFVMMFTLMMVAYSASSMALAIAAGQSVVSVATLLMTICFVFMMIFSGLLVNLTTIASWLSWLQYFSIPRYGFTALQHNEFLGQNFCPGLNATGNNPCNYATCTGEEYLVKQGIDLSPWGLWKNHVALACMIVIFLTIAYLKLLFLKKYS,Km,[7]; other: BCRP vesicles,1340 ± 1450 µM

# Source: article PMC5085761 (International Journal of Molecular Sciences, 2016)
